Key:
Mia PaCa-2 cells [1] = experiment: Mesenchymal/epithelial markers by ICC; type: cell-based, human; conditions: warfarin, in vitro
Description: FIGS. 31A-B. Maintenance of mesenchymal phenotype is Axl dependent and inhibited by warfarin. (FIGS. 31A-B) Mia PaCa-2 cells were grown in 1% serum containing media the absence (Control) or presence of warfarin (2 μM) overnight. Cells were assessed for expression of phosphorylated Axl, nuclear Zeb1 (FIG. 31A) and vimentin and E-cadherin (FIG. 31B) by ICC. […] (FIG. 31B) Representative images of Vimentin and E-Cadherin expression are shown, total magnification 400×. Images were analyzed using Elements software. Welch's t-test*, p<0.05; **, p<0.01 vs control.
Signaling and functional assays. Cells were grown to confluence in […] or 4 well chamber slides and treated overnight with low serum (1-2%) media+/−warfarin (2 μM) or 10C9 (1.1 μM, 168 μg/ml) overnight. Cells were subsequently analyzed by western blot or immunocytochemsitry (ICC).

[2] = tested on: orthotopic C5LM2 or Mia PaCa-2 tumors; experiment: Gemcitabine combinations in mice bearing established orthotopic tumors; type: in vivo, mouse; conditions: combined with gemcitabine
Text: Animal studies. All animals were housed in a pathogen-free facility with 24-hour access to food and water. Experiments were approved by, and conducted in accordance with, an IACUC approved protocol at UT Southwestern. LSL-Kras^G12D; Cdkn2a^lox/lox; p48^Cre (KIC) mice were generated as previously described (Ostapoff et al., 2014). Four- to 6-week-old female NOD/SCID and C57/B16 mice were obtained from an on campus supplier. A total of 1×10^6 AsPc-1, Panc-1, Mia Paca2, Capan-1, C5LM2, Mia shLuc and Mia shAxl or 5×10^5 Pan02 cells, were injected orthotopically as described (Ostapoff et al., 2014). Mice with established tumors, as determined by sonography were randomized to receive normal drinking water or water containing 1 mg/L (˜3.0 μM) warfarin for experiments in immunocompromised mice and 0.5 mg/L (˜1.5 μM) in experiments in immunocompetent animals with or without gemcitabine 25 mg/kg twice weekly depending on experimental design.

Mia PaCa-2 cells [3] = experiment: Spheroid assay in matrigel (3D culture); type: cell-based, human; conditions: warfarin 200 ng/ml, 7 days
Description: FIGS. 25A-I. Axl inhibition reduces colony formation and enhances chemotherapy. (FIGS. 25A-C) parental Mia PaCa-2 cells or Mia PaCa-2 cells stably transfected with shRNA targeting Axl (Mia shAxl) were grown as spheroids in matrigel for 7 days in the presence or absence of warfarin (200 ng/ml), n=4/condition. Mia PaCa-2 cell colonies form large stellate colonies characteristic of invasive tumor growth. Colonies and cognate cell projections were imaged (FIG. 25A) with a Nikon Phase contrast microscope using 40× and 200× magnification. Mean total colony number (FIG. 25B) and total colony area+/−s.d. (FIG. 25C) reflective of invasive growth were calculated using Image J image analysis. […] (FIG. 25E) liver metastases were quantified after intrasplenic injection of C5LM2 cells. […] Mice were sacrificed when control treated animals were moribund and primary and metastatic burden was determined. […]
For spheroid assays, matrigel was coated on 18×18 mm glass cover-slides in a 35 mm culture dish, using Reduced Growth Factor Matrigel (BD Bioscience) as described previously (Gjerdrum et al., 2010; Lee et al., 2007). […] Quantitative analysis of 3D organotypic structures was performed using Image J analysis software. Total number of established structures and the ability of established structures to migrate into the BM (Total area) were quantified and compared.

CC(=O)CC(c1ccccc1)c1c(O)c2ccccc2oc1=O (racemic) [Warfarin]
expression of the epithelial marker E-cadherin (Mia PaCa-2 cells [1]): elevating
pAxl levels, surface Axl expression, Zeb1 and vimentin (Mia PaCa-2 cells [1]): reduced
augmentation of gemcitabine reduction of primary tumor growth and metastatic control [2]: augmented gemcitabine reduction of primary tumor growth
tumor cell sphere formation and invasiveness in 3D culture (Mia PaCa-2 cells [3]): inhibited
